Read-outs that look alike come from different tables or passages of the source. {(RXR)4XB} = cell-penetrating peptide (R arginine, X 6-aminohexanoic acid, B beta-alanine), conjugated via its C-terminal beta-alanine linked through a pip-PDA moiety; {TEG} = triethylene glycol end group (as defined in the publication); {Acetyl} = acetyl cap
Tests used:
[1] = system: Acinetobacter spp. (~34 strains); experiment: PPMO MIC (IC75) in panel of Acinetobacter strains, rich and minimal media; details: nutrient rich MHII media
Description: Bacteria. Bacterial strains were obtained through the clinical microbiology lab at UT Southwestern unless otherwise noted. Strains also included those purchased through ATCC, the E. coli Genetic Stock Center (Yale University), or received from collaborators. They included both genome-sequenced isolates as well as clinical isolates with varying levels of antibiotic resistance. Single colonies were grown aerobically to stationary phase (1-2 mLs at 37° C., 250 rpm) in Mueller Hinton cation-adjusted (MH II) broth (Becton-Dickinson Difco BBL, Franklin Lakes, N.J., USA). The OD600 was taken and a working stock of 5×10^5 was generated based on the individual strain's colony forming units (CFU)/mL/OD. Working stocks were diluted in 150 mM NaCl and plated on tryptic-soy agar w/5% sheep blood plate (Remel, Lenexa, Kans.) to verify the starting concentration. For minimal nutrient conditions, E. coli was incubated in MOPS minimal medium (Neidhart et al., J Bacteriol 119:736-747, 1974), and Acinetobacter was performed in AB minimal media (Agrobacterium minimal media) with 10 mM citrate (Clark, J Mol Biol 23:99-112, 1967).
Minimal Inhibitory Concentration Assays. […] Optical density (OD) of cultures was read in a microplate spectrophotometer at 595-600 nm. After 18-20 hours of aerobic growth (200-250 rpm) at 37° C., 100 μl cultures with an OD of <0.06 were scored as no growth. […]

A. baumannii AYE [2] = experiment: MIC of tobramycin with adeA PPMO in nutrient rich and minimal media; format: cell-based; details: for MIC of tobramycin with adeA PPMO: 8 μM adeA PPMO
[3] = system: multi-drug-resistant strain of Acinetobacter baumannii (AYE); experiment: MIC of colistin, meropenem, tobramycin with added PPMO (microdilution), synergy by isoboles; details: for MIC: Acinetobacter baumannii
Description: Minimal Inhibitory Concentration Assays. Minimal inhibitory concentration (MIC) assays were performed in Mueller Hinton II medium using the microdilution method as described by the Clinical and Laboratory Standards Institute (CLSI). Optical density (OD) of cultures was read in a microplate spectrophotometer at 595-600 nm. After 18-20 hours of aerobic growth (200-250 rpm) at 37° C., 100 μl cultures with an OD of <0.06 were scored as no growth.
Synergy Studies. MICs were performed with a PPMO and a classic antibiotic (as indicated) in a 96 well plate. The PPMO was diluted first horizontally down the plate and the classic antibiotic was diluted across the rows of the plate. Inhibition was determined by visual observation and OD600 (see Berenbaum et al., J Antimicrob Chemother 12:555-563, 1983; and Berenbaum, J Infect Dis 137:122-130, 1978). […] Synergy was quantified using the method of isoboles as described (see Tallarida, Genes Cancer. 2:1003-8, 2011): (Effective concentration of antibiotic/MIC of antibiotic)+(Effective concentration of PPMO/MIC of PPMO). Calculated values less than 1 indicated synergy.
The MIC of the antibiotics colistin, meropenem, and tobramycin was measured using the microdilution method of the Clinical Laboratory Standards Institute in a 96-well microtiter plate format. Multiple, identical dilution series of each antibiotic were included on each microtiter plate. In each dilution series of antibiotic, a fixed amount of PPMO was added. Each dilution series of antibiotic included a different concentration of PPMO.

E. coli SMS-3-5 = experiment: MIC of classical antibiotics with added PPMOs that target resistance genes; format: cell-based
Text: FIGS. 15A-15B show the minimum inhibitory concentration (MIC) of classical antibiotics with added PPMOs that target resistance genes in E. coli SMS-3-5. (FIG. 15A) MIC of ampicillin with blaT-(RXR)4XB (PPMO#66). (FIG. 15B) MIC of chloramphemicol with cmlA-(RXR)4XB (PPMO#67). N=3.
Minimal Inhibitory Concentration Assays.
Modulating antibiotic resistance with PPMOs could be an alternative therapeutic strategy. As proof of concept, PPMOs were designed to target specific, non-essential antibiotic resistance genes. blaT is part of the TEM beta-lactamase family and is found in environmental strains of E. coli, like SMS-3-5.

A. baumannii AYE [4] = experiment: Transmission electron microscopy of PPMO-treated bacteria; format: cell-based; details: 40 μM

PPMO#6: acpP PPMO ATATCGCTCAC; 5' (RXR)4XB, 3' acetyl (all phosphorodiamidate morpholino (PMO), 5' {(RXR)4XB}, 3' {Acetyl}; further chemistry not given here)
IC75 MIC [1]: 2 µM

PPMO#65: adeA PPMO ATACTGTCCAA; 5' TEG, 3' (RXR)4XB (listed as DNA, chemistry not fully specified)
MIC of tobramycin with adeA PPMO (A. baumannii AYE [2]; MHII): 4 mg/L | MIC of tobramycin with adeA PPMO (A. baumannii AYE [2]; minimal media): 1 mg/L

colistin [reference compound]
MIC of colistin ([3]; without PPMO): 1 mg/L

O=C(N[C@H](CO)[C@H](O)c1ccc([N+](=O)[O-])cc1)C(Cl)Cl [chloramphenicol, reference compound]
MIC (E. coli SMS-3-5; Escherichia coli, SMS35, chloramphenicol alone): > 512 mg/L

C[C@@H](O)[C@H]1C(=O)N2C(C(=O)O)=C(S[C@@H]3CN[C@H](C(=O)N(C)C)C3)[C@H](C)[C@H]12 [meropenem, reference compound]
MIC ([3]; read-out: MIC of meropenem): 2 mg/L

NC[C@H]1O[C@H](O[C@H]2[C@H](O)[C@@H](O[C@H]3O[C@H](CO)[C@@H](O)[C@H](N)[C@H]3O)[C@H](N)C[C@@H]2N)[C@H](N)C[C@@H]1O [tobramycin, reference compound]
MIC of tobramycin alone (A. baumannii AYE [2]; AB Minimal Media): 64 mg/L | MIC (A. baumannii AYE [2]; Acinetobacter baumannii, MHII, read-out: MIC of tobramycin alone): 64 mg/L | MIC ([3]; read-out: MIC of tobramycin): 64 mg/L

PPMO#7: acpP PPMO ATATCGCTCAC; 5' TEG, 3' (RXR)4XB (all phosphorodiamidate morpholino (PMO), 5' {TEG}, 3' {(RXR)4XB}; further chemistry not given here)
cell morphology by TEM (A. baumannii AYE [4]; 6 hours of incubation, MHII media): cell wall disruption | earliest time at which cell wall disruption was seen (A. baumannii AYE [4]; data not shown): 3 h | MIC of colistin in the presence of PPMO ([3]; 2 μM of PPMO): 0.25 mg/L | MIC of tobramycin in the presence of PPMO ([3]; 4 μM PPMO): 2 mg/L | synergy (method of isoboles; values less than 1 indicate synergy), colistin + PPMO ([3]; colistin): 0.75 | synergy (method of isoboles), meropenem + PPMO ([3]; meropenem): 0.75 | synergy (method of isoboles), tobramycin + PPMO ([3]; tobramycin): 0.625 | IC75 MIC [1]: 4 µM

PPMO#66: blaT PPMO CTCTTCCTTTT; 5' TEG, 3' (RXR)4XB (listed as DNA, chemistry not fully specified)
effect of increasing concentrations of blaT PPMO on MIC of ampicillin (E. coli SMS-3-5; FIG. 15A): progressively decreased

PPMO#67: cml PPMO TCCTTCTGATT; 5' TEG, 3' (RXR)4XB (listed as DNA, chemistry not fully specified)
effect of increasing concentrations of cmlA PPMO on MIC of chloramphenicol (E. coli SMS-3-5; FIG. 15B): progressively decreases in a dose-dependent fashion
